Laboratory results published in US7001905B2, “Substituted diarylamines as MEK inhibitors” (Warner-Lambert Company, priority 2000, dated 2006).

Experiments:
MEK = biological target: T1, MEK (Homo sapiens, UniProt Q02750); assay: in vitro MEK assay; format: biochemical
T1 construct: no tag is given for the 2D mutant
How it was run: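 GST-MEK (10 μg) or activated GST-MEK-2E (S218E/S222E, 5 μg) phosphorylates kinase-dead GST-MAPK-KA (K71A, 5 μg) with 10 μM [γ-32P]ATP in 50 mM Tris pH 7.5 for 15 min at 30 °C. Read-out: SDS-PAGE, autoradiography and scintillation counting of excised bands.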

T1 sequence (Q02750 whole entry S218D/S222D, form open): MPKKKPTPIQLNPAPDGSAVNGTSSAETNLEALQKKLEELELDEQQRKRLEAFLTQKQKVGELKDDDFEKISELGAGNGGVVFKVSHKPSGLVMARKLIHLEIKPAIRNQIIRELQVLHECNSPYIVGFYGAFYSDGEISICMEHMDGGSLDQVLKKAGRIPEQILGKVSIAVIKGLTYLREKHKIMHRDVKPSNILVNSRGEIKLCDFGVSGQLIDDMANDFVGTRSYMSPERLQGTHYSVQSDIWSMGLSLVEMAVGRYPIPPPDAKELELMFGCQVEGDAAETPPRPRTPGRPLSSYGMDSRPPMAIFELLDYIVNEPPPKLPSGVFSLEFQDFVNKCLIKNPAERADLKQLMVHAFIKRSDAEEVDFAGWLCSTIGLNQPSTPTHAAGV

Row | Structure (SMILES) | IC50 (MEK) | melting point | in vitro MEK assay: % inhibition @ 1 μM (MEK)
1 | CNC(=O)c1cc2c(c(F)c1F)N(c1ccc(I)cc1C)COC2=O [Example 2, 7,8-Difluoro-1-(4-iodo-2-methyl-phenyl)-4-oxo-1,4-dihydro-2H-benzo[d][1,3]oxazine-6-carboxylic acid methylamide] | 6600 nM | 219 to 223 °C | 
2 | CNC(=O)c1cc(C(=O)O)c(Nc2ccc(I)cc2C)c(F)c1F [Example 3, 4,5-Difluoro-6-(-4-iodo-2-methyl-phenylamino)-N-methyl-isophthalamic acid] | 2400 nM | 254 to 259 °C | 
3 | CNC(=O)c1cc(C(=O)NOCC2CC2)c(Nc2ccc(I)cc2C)c(F)c1F [Example 4, N^1-Cycloprolylmethoxy-4,5-difluoro-6-(4-iodo-2-methyl-phenylamino)-N^3-methyl-isophthalamide] | 1100 nM | 198 to 202 °C | 
4 | Cc1cc(I)ccc1Nc1c(C(=O)NOCC2CC2)cc(C(=O)N(C)C)c(F)c1F [Example 6, N^1-Cyclopropylmethoxy-4,5-difluoro-6-(4-iodo-2-methyl-phenylamino)-N^3,N^3-dimethyl-isophthalamide] | 4300 nM | 78 to 80 °C | 
5 | Cc1cc(I)ccc1Nc1c(C(=O)O)cc(C(=O)NCCN2CCOCC2)c(F)c1F [Example 79, 4,5-Difluoro-6-(4-iodo-2-methyl-phenylamino)-N-(2-morpholin-4-yl-ethyl)-isophthalamic acid] | 1500 nM |  | 54%
6 | Cc1cc(I)ccc1Nc1c(C(=O)O)cc(C(=O)NCc2ccncc2)c(F)c1F [Example 80, 4,5-Difluoro-6-(4-iodo-2-methyl-phenylamino)-N-pyridin4-ylmethyl-isophthalamic acid] | 1700 nM |  | 71%
7 | Cc1cc(I)ccc1Nc1c(C(=O)O)cc(C(=O)N2CCC(O)CC2)c(F)c1F [Example 81, 3,4-Difluoro-5-[1-(4-hydroxy-piperidin-1-yl)-methanoyl]-2-(4-iodo-2-methyl-phenylamino)-benzoic acid] | 1800 nM |  | 86%
8 | Cc1cc(I)ccc1Nc1c(C(=O)O)cc(C(=O)N2CCC(CCO)CC2)c(F)c1F [Example 83, 3,4-Difluoro-5-{1-[4-(2-hydroxy-ethyl)-piperidin-1-yl]-methanoyl}-2-(4-iodo-2-methyl-phenylamino)-benzoic acid] | 150 nM |  | 90%
9 | CCn1nccc1NC(=O)c1cc(C(=O)O)c(Nc2ccc(I)cc2C)c(F)c1F [Example 84, N-(2-Ethyl-2H-pyrazol-3-yl)-4,5-difluoro-6-(4-iodo-2-methyl-phenylamino)-isophthalamic acid] | 960 nM |  | 79%
10 | Cc1cc(I)ccc1Nc1c(C(=O)O)cc(C(=O)Nc2ccc(Cl)nc2)c(F)c1F [Example 85, N-(6-Chloro-pyridin-3-yl)-4,5-difluoro-6-(4-iodo-2-methyl-phenylamino)-isophthalamic acid] | 970 nM |  | 90%
11 | Cc1cc(I)ccc1Nc1c(C(=O)O)cc(C(=O)Nc2ccc3cn[nH]c3c2)c(F)c1F [Example 86, 4,5-Difluoro-N-(1H-indazol-6-yl)-6-(4-iodo-2-methyl-phenylamino)-isophthalamic acid] | 1100 nM |  | 77%
12 | Cc1cc(I)ccc1Nc1c(C(=O)O)cc(C(=O)NC(C)CO)c(F)c1F (centres unmarked) [Example 87, 4,5-Difluoro-N-(2-hydroxy-1-methyl-ethyl)-6-(4-iodo-2-methyl-phenylamino)-isophthalamic acid] | 2200 nM |  | 66%
13 | Cc1cc(I)ccc1Nc1c(C(=O)O)cc(C(=O)NCCc2c[nH]cn2)c(F)c1F [Example 88, 4,5-Difluoro-N-[2-(1H-imidazol-4-yl)-ethyl]-6-(4-iodo-2-methyl-phenylamino)-isophthalamic acid] | 1400 nM |  | 60%
14 | Cc1cc(I)ccc1Nc1c(C(=O)O)cc(C(=O)N2CCOCC2)c(F)c1F [Example 89, 3,4-Difluoro-2-(4-iodo-2-methyl-1-phenylamino)-5-(1-morpholin-4-yl-methanoyl)-benzoic acid] |  |  | 89%
15 | Cc1cc(I)ccc1Nc1c(C(=O)O)cc(C(=O)NCCCn2ccnc2)c(F)c1F [Example 90, 4,5-Difluoro-N-(3-imidazol-1-yl-propyl)-6-(4-iodo-2-methyl-phenylamino)-isophthalamic acid] |  |  | 59%
16 | Cc1cc(I)ccc1Nc1c(C(=O)O)cc(C(=O)NCCCN2CCOCC2)c(F)c1F [Example 91, 4,5-Difluoro-6-(4-iodo-2-methyl-phenylamino)-N-(3-morpholin4-yl-propyl)-isophthalamic acid] |  |  | 58%
17 | Cc1cc(I)ccc1Nc1c(C(=O)O)cc(C(=O)Nc2ccc(N(C)C)cc2)c(F)c1F [Example 92, N-(4-Dimethylamino-phenyl)-4,5-difluoro-6-(iodo-methyl-phenylamino)-isophthalamic acid] |  |  | 80%
18 | CCN1CCN(C(=O)c2cc(C(=O)O)c(Nc3ccc(I)cc3C)c(F)c2F)CC1 [Example 93, 5-[1-(4-Ethyl-piperazin-1-yl)-methanoyl]-3,4-difluoro-2-(4-iodo-2-methyl-phenylamino)-benzoic acid] |  |  | 70%
19 | COc1ccc(N(C)C(=O)c2cc(C(=O)O)c(Nc3ccc(I)cc3C)c(F)c2F)cc1 [Example 94, 4,5-Difluoro-6-(4-iodo-2-methyl-phenylamino)-N-(4-methoxy-phenyl)-N-methyl-isophthalamic acid] |  |  | 92%
20 | Cc1cc(I)ccc1Nc1c(C(=O)O)cc(C(=O)N(C)CCc2c[nH]c3ccccc23)c(F)c1F [Example 95, 4,5-Difluoro-N-[2-(1H-indol-3-yl)-ethyl]-6-(4-iodo-2-methyl-phenylamino)-N-methyl-isophthalamic acid] |  |  | 77%
21 | Cc1cc(I)ccc1Nc1c(C(=O)O)cc(C(=O)Nc2ccc(S(N)(=O)=O)cc2)c(F)c1F [Example 96, 4,5-Difluoro-6-(4-iodo-2-methyl-phenylamino)-N-(4-sulfamoyl-phenyl)-isophthalamic acid] |  |  | 85%
22 | Cc1cc(I)ccc1Nc1c(C(=O)O)cc(C(=O)NCC2CCCO2)c(F)c1F (centres unmarked) [Example 97, 4,5-Difluoro-6-(4-iodo-2-methyl-phenylamino)-N-(tetrahydro-furan-2-ylmethyl)-isophthalamic acid] |  |  | 81%
23 | Cc1cc(I)ccc1Nc1c(C(=O)O)cc(C(=O)N2CCSC2)c(F)c1F [Example 98, 3,4-Difluoro-2-(4-iodo-2-methyl-phenylamino)-5-(1-thiazolidin-3-yl-methanoyl)-benzoic acid] | 87 nM |  | 86%
24 | Cc1cc(I)ccc1Nc1c(C(=O)O)cc(C(=O)N2CCSCC2)c(F)c1F [Example 99] | 150 nM |  | 82%
25 | Cc1cc(I)ccc1Nc1c(C(=O)O)cc(C(=O)N2CCCC(O)C2)c(F)c1F (centres unmarked) [Example 101, 3,4-Difluoro-5-[1-(3-hydroxy-piperidin-1-yl)-methanoyl]-2-(4-iodo-2-methyl-phenylamino)-benzoic acid] |  |  | 75%
26 | Cc1cc(I)ccc1Nc1c(C(=O)O)cc(C(=O)NCCN2CCCCC2)c(F)c1F [Example 102] |  |  | 25%
